Experimental data published in US6737383B1, “Herbicidal oxadiazolidines” (priority 1999, dated 2004).

Experiments:
giant foxtail = experiment: Test B pre/postemergence giant foxtail; type: in vivo, Setaria faberii
How it was run: (§1)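 Herbicidal effect was estimated by eye on a ten-point control scale after plants spent twelve to sixteen days in a greenhouse following soil or foliar treatment. Foliar sprays targeted plants at one to four leaves; all doses were formulated in a non-phytotoxic solvent with surfactant.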

corn = experiment: Test B pre/postemergence corn; type: in vivo, Zea mays
How it was run: as §1

cocklebur = experiment: Test B pre/postemergence cocklebur; type: in vivo, Xanthium strumarium
How it was run: as §1

blackgrass = experiment: Test B pre/postemergence blackgrass; type: in vivo, Alopecurus myosuroides
How it was run: as §1

soybean = experiment: Test B pre/postemergence soybean; type: in vivo, Glycine max
How it was run: as §1

smallflower flatsedge = experiment: Test B flood test smallflower flatsedge; type: in vivo, Cyperus difformis
How it was run: (§2)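 Flood test on plants grown to the 2-leaf stage; treated plants kept in greenhouse twelve to sixteen days, then visually rated against controls on a 0 (no effect) to 10 (complete control) scale.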

surinam grass = experiment: Test B pre/postemergence surinam grass; type: in vivo, Brachiaria decumbens
How it was run: as §1

velvetleaf = experiment: Test B pre/postemergence velvetleaf; type: in vivo, Abutilon theophrasti
How it was run: as §1

wheat = experiment: Test B pre/postemergence wheat; type: in vivo, Triticum aestivum
How it was run: as §1

purple nutsedge = experiment: Test B pre/postemergence purple nutsedge; type: in vivo, Cyperus rotundus
How it was run: as §1

duck salad = experiment: Test B flood test duck salad; type: in vivo, Heteranthera limosa
How it was run: as §2

rape = experiment: Test B pre/postemergence rape; type: in vivo, Brassica napus
How it was run: as §1

sugar beet = experiment: Test B pre/postemergence sugar beet; type: in vivo, Beta vulgaris
How it was run: as §1

crabgrass = experiment: Test B pre/postemergence crabgrass; type: in vivo, Digitaria sanguinalis
How it was run: as §1

morningglory = experiment: Test B pre/postemergence morningglory; type: in vivo, Ipomoea hederacea
How it was run: as §1

wild oat = experiment: Test B pre/postemergence wild oat; type: in vivo, Avena fatua
How it was run: as §1

[1] = Postemergence, Rate 31 g/ha, visual rating, scale 0 to 10 (0 no effect, 10 complete control)
[2] = Preemergence, Rate 31 g/ha, visual rating, scale 0 to 10 (0 no effect, 10 complete control)
[3] = Preemergence, Rate 62 g/ha, scale of 0 to 10 where 0 is no effect and 10 is complete control
[4] = Preemergence, Rate 250 g/ha, scale of 0 to 10 where 0 is no effect and 10 is complete control
[5] = Rate 62 g/ha, Postemergence, scale 0 to 10, 0 no effect, 10 complete control
[6] = Rate 125 g/ha, Postemergence, scale of 0 to 10 where 0 is no effect and 10 is complete control
[7] = Rate 250 g/ha, Postemergence, scale of 0 to 10 where 0 is no effect and 10 is complete control
[8] = Rate 31 g/ha, Pre-emergence section (flood test species), scale 0 to 10
[9] = Rate 62 g/ha, headed Pre-emergence (flood test species), scale 0 to 10 (0 no effect, 10 complete control)
[10] = Rate 125 g/ha, Pre-emergence, flood test species, scale 0 to 10 where 0 is no effect and 10 is complete control
[11] = Rate 250 g/ha, Pre-emergence, flood-test species, scale 0 to 10, 0 is no effect, 10 is complete control

COCC(C)N(C(=O)n1oc(=O)n(-c2ccccc2C)c1=O)c1ccc(F)cc1 (stereo not shown) [Compound 324]
0: Giant foxtail plant response rating (giant foxtail; [1]) | Giant foxtail plant response rating (giant foxtail; [2]) | Giant foxtail plant response rating (giant foxtail; [3]) | Giant foxtail plant response rating (0 to 10 scale) (giant foxtail; Preemergence, Rate 125 g/ha) | Giant foxtail plant response rating (giant foxtail; [4]) | Giant foxtail plant response rating (giant foxtail; [5]) | Giant foxtail plant response rating (giant foxtail; [6]) | Plant response rating, Giant foxtail (giant foxtail; [7]) | Corn plant response rating (corn; [1]) | Corn plant response rating (corn; [2]) | Corn plant response rating (corn; [3]) | Corn plant response rating (0 to 10 scale) (corn; Preemergence, Rate 125 g/ha) | Corn plant response rating (corn; [4]) | Corn plant response rating (corn; [5]) | Corn plant response rating (corn; [6]) | Plant response rating, Corn (corn; [7]) | Cocklebur plant response rating (cocklebur; [1]) | Cocklebur plant response rating (cocklebur; [2]) | Cocklebur plant response rating (cocklebur; [3]) | Cocklebur plant response rating (0 to 10 scale) (cocklebur; Preemergence, Rate 125 g/ha) | Cocklebur plant response rating (cocklebur; [4]) | Cocklebur plant response rating (cocklebur; [5]) | Cocklebur plant response rating (cocklebur; [6]) | Blackgrass plant response rating (blackgrass; [1]) | Blackgrass plant response rating (blackgrass; [2]) | Blackgrass plant response rating (blackgrass; [3]) | Blackgrass plant response rating (0 to 10 scale) (blackgrass; Preemergence, Rate 125 g/ha) | Blackgrass plant response rating (blackgrass; [4]) | Blackgrass plant response rating (blackgrass; [5]) | Blackgrass plant response rating (blackgrass; [6]) | Plant response rating, Blackgrass (blackgrass; [7]) | Soybean plant response rating (soybean; [1]) | Soybean plant response rating (soybean; [3]) | Soybean plant response rating (0 to 10 scale) (soybean; Preemergence, Rate 125 g/ha) | Soybean plant response rating (soybean; [4]) | Soybean plant response rating (soybean; [5]) | S. Flatsedge plant response rating (smallflower flatsedge; [8]) | S. Flatsedge plant response rating (smallflower flatsedge; [9]) | S. Flatsedge plant response rating (smallflower flatsedge; [10]) | S. Flatsedge plant response rating (smallflower flatsedge; [11]) | B. signalgrass plant response rating (surinam grass; [1]) | B. signalgrass plant response rating (surinam grass; [2]) | B. signalgrass plant response rating (surinam grass; [3]) | B. signalgrass plant response rating (0 to 10 scale, 0 is no effect, 10 is complete control) (surinam grass; Preemergence, Rate 125 g/ha) | B. signalgrass plant response rating (surinam grass; [4]) | B. signalgrass plant response rating (surinam grass; [5]) | B. signalgrass plant response rating (surinam grass; [6]) | Plant response rating, B. signalgrass (surinam grass; [7]) | Velvetleaf plant response rating (velvetleaf; [1]) | Velvetleaf plant response rating (velvetleaf; [3]) | Velvetleaf plant response rating (0 to 10 scale) (velvetleaf; Preemergence, Rate 125 g/ha) | Velvetleaf plant response rating (velvetleaf; [4]) | Velvetleaf plant response rating (velvetleaf; [5]) | Velvetleaf plant response rating (velvetleaf; [6]) | Plant response rating, Velvetleaf (velvetleaf; [7]) | Wheat plant response rating (wheat; [1]) | Wheat plant response rating (wheat; [3]) | Wheat plant response rating (0 to 10 scale) (wheat; Preemergence, Rate 125 g/ha) | Wheat plant response rating (wheat; [4]) | Wheat plant response rating (wheat; [5]) | Wheat plant response rating (wheat; [6]) | Plant response rating, Wheat (wheat; [7]) | Nutsedge plant response rating (purple nutsedge; [1]) | Nutsedge plant response rating (purple nutsedge; [3]) | Nutsedge plant response rating (0 to 10 scale) (purple nutsedge; Preemergence, Rate 125 g/ha) | Nutsedge plant response rating (purple nutsedge; [4]) | Nutsedge plant response rating (purple nutsedge; [5]) | Nutsedge plant response rating (purple nutsedge; [6]) | Plant response rating, Nutsedge (purple nutsedge; [7]) | Ducksalad plant response rating (duck salad; [8]) | Ducksalad plant response rating (duck salad; [9]) | Ducksalad plant response rating (duck salad; [10]) | Ducksalad plant response rating (duck salad; [11]) | Rape plant response rating (rape; [1]) | Rape plant response rating (rape; [3]) | Rape plant response rating (0 to 10 scale) (rape; Preemergence, Rate 125 g/ha) | Rape plant response rating (rape; [4]) | Rape plant response rating (rape; [5]) | Rape plant response rating (rape; [6]) | Plant response rating, Rape (rape; [7]) | Sugarbeets plant response rating (sugar beet; [1]) | Sugarbeets plant response rating (sugar beet; [3]) | Sugarbeets plant response rating (0 to 10 scale) (sugar beet; Preemergence, Rate 125 g/ha) | Sugarbeets plant response rating (sugar beet; [4]) | Sugarbeets plant response rating (sugar beet; [5]) | Sugarbeets plant response rating (sugar beet; [6]) | Plant response rating, Sugarbeets (sugar beet; [7]) | Crabgrass plant response rating (crabgrass; [1]) | Crabgrass plant response rating (crabgrass; [2]) | Crabgrass plant response rating (crabgrass; [3]) | Crabgrass plant response rating (0 to 10 scale) (crabgrass; Preemergence, Rate 125 g/ha) | Crabgrass plant response rating (crabgrass; [4]) | Crabgrass plant response rating (crabgrass; [5]) | Crabgrass plant response rating (crabgrass; [6]) | Plant response rating, Crabgrass (crabgrass; [7]) | Morningglory plant response rating (morningglory; [1]) | Morningglory plant response rating (morningglory; [3]) | Morningglory plant response rating (0 to 10 scale) (morningglory; Preemergence, Rate 125 g/ha) | Morningglory plant response rating (morningglory; [4]) | Morningglory plant response rating (morningglory; [5]) | Morningglory plant response rating (morningglory; [6]) | Plant response rating, Morningglory (morningglory; [7]) | Wild oats plant response rating (wild oat; [1]) | Wild oats plant response rating (wild oat; [3]) | Wild oats plant response rating (0 to 10 scale) (wild oat; Preemergence, Rate 125 g/ha) | Wild oats plant response rating (wild oat; [4]) | Wild oats plant response rating (wild oat; [5]) | Wild oats plant response rating (wild oat; [6]) | Plant response rating, Wild oats (wild oat; [7])
2: Plant response rating, Cocklebur (cocklebur; [7])
1: Soybean plant response rating (soybean; [6]) | Plant response rating, Soybean (soybean; [7])
